Data on 23 compounds can be found in patent US7803793B2, “Heterocyclic derived metalloprotease inhibitors” (Janssen Pharmaceutica NV, priority 2006, dated 2010).

The term IC50 denotes the midpoint of a concentration-inhibition curve.

One test deals with T1, MMP-9 (Homo sapiens, UniProt P14780).
T1 construct: Human MMP-9 catalytic domain (aa 107-446)
The experiment in a line: MMP enzymatic assay (Trupoint peptide), MMP-9. Type of test: biochemical. The method, then:
[formula] • 1) Prepare appropriate 1×MMP assay buffer from 10× stock. […] The plate setup should be as follows, using GM6001 as plate reference compound:
• 6) Serially dilute 10 μl down the plate to achieve 1:3 dilutions in subsequent wells. After each dilution, change pipette tips to avoid compound carryover. […] Will need 10 ml enzyme solution per plate. Add enzyme to plate, 20 μl per well. Incubate 1 hr.
Prepare 5 ml total per plate. Add 10 ul of substrate to each well to achieve a final concentration of 100 nM in well. […] Read in plate reader.
(§1) Analysis Specifications • Calculate average background value from substrate/assay buffer wells • Subtract this from entire plate • Calculate average of DMSO wells for each enzyme. This is the positive control, 100% value. • For each well, calculate percent of control by dividing well value by the average DMSO value obtained above. • Paste percent of control values into Graphpad Prism 4.0.

The next test has as its target T2, MMP-2 (Homo sapiens, UniProt P08253).
T2 construct: Human MMP-2 full length (aa 1-660)
T2 sequence (P08253 30-660): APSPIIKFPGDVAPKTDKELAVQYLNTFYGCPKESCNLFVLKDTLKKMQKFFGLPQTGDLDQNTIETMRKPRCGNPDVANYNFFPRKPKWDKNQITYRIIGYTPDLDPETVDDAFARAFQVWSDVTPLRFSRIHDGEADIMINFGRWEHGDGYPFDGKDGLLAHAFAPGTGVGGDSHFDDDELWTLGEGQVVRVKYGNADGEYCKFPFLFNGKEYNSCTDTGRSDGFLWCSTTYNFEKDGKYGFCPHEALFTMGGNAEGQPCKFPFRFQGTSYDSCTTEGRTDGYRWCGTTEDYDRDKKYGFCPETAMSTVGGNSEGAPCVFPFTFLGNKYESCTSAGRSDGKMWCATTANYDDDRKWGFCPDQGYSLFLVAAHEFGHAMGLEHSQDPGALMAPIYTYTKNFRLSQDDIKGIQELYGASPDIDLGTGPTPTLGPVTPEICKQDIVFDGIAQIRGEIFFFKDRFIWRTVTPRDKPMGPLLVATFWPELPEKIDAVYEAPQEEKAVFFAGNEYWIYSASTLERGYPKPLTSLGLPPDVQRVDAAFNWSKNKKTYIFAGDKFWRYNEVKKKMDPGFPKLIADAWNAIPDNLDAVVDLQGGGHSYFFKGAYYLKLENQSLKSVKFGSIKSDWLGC
As to the kind of experiment: MMP enzymatic assay (Trupoint peptide), MMP-2. Type of test: biochemical. The method, then: [formula] • 1) Prepare appropriate 1×MMP assay buffer from 10× stock. […] Need to prepare a 2.5× concentration stock (2.5 μM) to achieve this concentration in 50 μl. Dilute compound to 2.5 mM in 100% DMSO (a 1:40 dilution), then dilute the 2.5 mM compound to 2.5 μM (1:1000) into 1× assay buffer. Make 1 ml 2.5 μM compound in assay buffer. • 4) Fill the rows B through P of a 384-well plate with assay buffer+0.1% DMSO. • 5) Add 30 ul of the 2.5 μM compound in assay buffer to the top row of the plate, doing each compound in triplicate. The plate setup should be as follows, using GM6001 as plate reference compound:
• 6) Serially dilute 10 μl down the plate to achieve 1:3 dilutions in subsequent wells. After each dilution, change pipette tips to avoid compound carryover. Discard the remaining 10 μl after diluting into the final row. • 7) Prepare enzyme dilutions at 2.5× of final desired concentration (see below). Will need 10 ml enzyme solution per plate. Add enzyme to plate, 20 μl per well. Incubate 1 hr.
• 8) Dilute the 500 μM Trupoint peptide 1:1000 into assay buffer to achieve a 5× working stock of 500 nM. Prepare 5 ml total per plate. Add 10 ul of substrate to each well to achieve a final concentration of 100 nM in well. Also prepare background subtraction wells by adding 10 μl 5× substrate to 40 μl assay buffer per well, typically do ˜32 wells. • 9) Incubate assay at room temperature for 15 min. Read in plate reader.
as §1

Read-outs that look alike come from different tables or passages of the source.

T1 sequence (P14780 107-446): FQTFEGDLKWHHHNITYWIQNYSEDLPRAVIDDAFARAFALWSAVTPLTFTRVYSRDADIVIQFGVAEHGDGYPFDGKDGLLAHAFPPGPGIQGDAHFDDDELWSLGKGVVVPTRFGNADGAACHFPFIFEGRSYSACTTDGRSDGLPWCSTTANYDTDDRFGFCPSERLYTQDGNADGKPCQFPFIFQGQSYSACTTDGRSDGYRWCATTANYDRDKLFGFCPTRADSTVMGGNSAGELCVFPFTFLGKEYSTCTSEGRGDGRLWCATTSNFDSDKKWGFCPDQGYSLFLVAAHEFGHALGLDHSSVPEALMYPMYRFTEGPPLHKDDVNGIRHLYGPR

Consider “1-Hydroxy-3-(4′-trifluoromethoxy-biphenyl-4-sulfonyl)-azepan-2-one [Compound 85]”, for which the IC50 on MMP-9 and on MMP-2 (read-out: MMP-2 nM IC50) was more than 1000 nM throughout.
As to “4-(4-Chloro-phenoxy)-N-(1-hydroxy-2-oxo-2,3,4,7-tetrahydro-1H-azepin-3-(R)-yl)-benzenesulfonamide [Compound 1]”, the IC50 was determined as 0.78 nM at MMP-9 and 0.81 nM on MMP-2 (read-out: MMP-2 nM IC50).
On to `O=C1[C@H](NS(=O)(=O)c2ccc(-c3ccc(Cl)cc3)cc2)CC=CCN1O` [Compound 2, 4′-Chloro-biphenyl-4-sulfonic acid (1-hydroxy-2-oxo-2,3,4,7-tetrahydro-1H-azepin-3-(R)-yl)-amide], for which the IC50 against MMP-9 worked out at 1140 nM; on MMP-2, 68.6 nM.
`O=C1[C@H](NS(=O)(=O)c2ccc(Oc3ccccc3)cc2)CC=CCN1O` [Compound 3, N-(1-Hydroxy-2-oxo-2,3,4,7-tetrahydro-1H-azepin-3-(R)-yl)-4-phenoxy-benzenesulfonamide]: the figures for the IC50 on MMP-9 and on MMP-2 were 1.76 nM and 1.07 nM, respectively.
On the same counts, the results for `O=C1[C@H](NS(=O)(=O)c2ccc(Oc3ccc(C(F)(F)F)cc3)cc2)CC=CCN1O` [Compound 5, N-(1-Hydroxy-2-oxo-2,3,4,7-tetrahydro-H-azepin-3-(R)-yl)-4-(4-trifluoro-methyl-phenoxy)-benzenesulfonamide] are 2.04 nM and 1.79 nM.
The like results for `O=C1[C@H](NS(=O)(=O)c2ccc(Oc3ccncc3)cc2)CC=CCN1O` [Compound 6, N-(1-Hydroxy-2-oxo-2,3,4,7-tetrahydro-1H-azepin-3-(R)-yl)-4-(pyridin-4-yloxy)-benzenesulfonamide] were, in that order, 15.9 nM and 2.67 nM.
`O=C1[C@H](NS(=O)(=O)c2ccc(Oc3ncc(C(F)(F)F)cc3Cl)cc2)CC=CCN1O` [Compound 7, 4-(3-Chloro-5-trifluoromethyl-pyridin-2-yloxy)-N-(1-hydroxy-2-oxo-2,3,4,7-tetrahydro-1H-azepin-3-(R)-yl)-benzenesulfonamide]: the IC50 on MMP-9 and against MMP-2 was more than 1000 nM in each case.
`O=C1[C@H](NS(=O)(=O)c2ccc(Oc3ccccn3)cc2)CC=CCN1O` [Compound 8, N-(1-Hydroxy-2-oxo-2,3,4,7-tetrahydro-1H-azepin-3-(R)-yl)-4-(pyridin-2-yloxy)-benzenesulfonamide]: the figures for the IC50 on MMP-9 and at MMP-2 were 22.9 nM and 15.1 nM, respectively.
On the same counts, the results for `O=C1[C@H](NS(=O)(=O)c2ccc(N3CCC(c4ccccc4)CC3)cc2)CC=CCN1O` [Compound 9, N-(1-Hydroxy-2-oxo-2,3,4,7-tetrahydro-1H-azepin-3-(R)-yl)-4-(4-phenyl-piperidin-1-yl)-benzenesulfonamide] are more than 1000 nM and more than 1000 nM.
On the same counts, the results for `O=C1[C@H](NS(=O)(=O)c2ccc(N3CCN(c4ccccc4)CC3)cc2)CC=CCN1O` [Compound 10, N-(1-Hydroxy-2-oxo-2,3,4,7-tetrahydro-1H-azepin-3-(R)-yl)-4-(4-phenyl-piperazin-1-yl)-benzenesulfonamide] are more than 1000 nM and more than 1000 nM.
The like results for `O=C1[C@H](N(CCN2CCOCC2)S(=O)(=O)c2ccc(Oc3ccc(Cl)cc3)cc2)CC=CCN1O` [Compound 11, 4-(4-Chloro-phenoxy)-N-(1-hydroxy-2-oxo-2,3,4,7-tetrahydro-1H-azepin-3-(R)-yl)-N-(2-morpholin-4-yl-ethyl)-benzenesulfonamide] were, in that order, 0.2 nM and 0.31 nM.
Regarding `CN([C@@H]1CC=CCN(O)C1=O)S(=O)(=O)c1ccc(Oc2ccc(Cl)cc2)cc1` [Compound 12, 4-(4-Chloro-phenoxy)-N-(1-hydroxy-2-oxo-2,3,4,7-tetrahydro-1H-azepin-3-(R)-yl)-N-methyl-benzenesulfonamide], the results for the IC50 against MMP-9 and against MMP-2 were 1.32 nM and 1.99 nM, respectively.
For the compound `O=C1[C@H](N(CCN2CCCCC2)S(=O)(=O)c2ccc(Oc3ccc(Cl)cc3)cc2)CC=CCN1O` [Compound 13, 4-(4-Chloro-phenoxy)-N-(1-hydroxy-2-oxo-2,3,4,7-tetrahydro-1H-azepin-3-(R)-yl)-N-(2-piperidin-1-yl-ethyl)-benzenesulfonamide], the figures for the IC50 on MMP-9 and at MMP-2 were 0.21 nM and 0.55 nM, respectively.
On the same counts, the results for `CN1CCN(CCN([C@@H]2CC=CCN(O)C2=O)S(=O)(=O)c2ccc(Oc3ccc(Cl)cc3)cc2)CC1` [Compound 14, 4-(4-Chloro-phenoxy)-N-(1-hydroxy-2-oxo-2,3,4,7-tetrahydro-1H-azepin-3-(R)-yl)-N-[2-(4-methyl-piperazin-1-yl)-ethyl]-benzenesulfonamide] are 0.2 nM and 0.49 nM.
`O=C1[C@H](NS(=O)(=O)Cc2ccc(Cl)cc2)CC=CCN1O` [Compound 15, (4-Chloro-phenyl)-N-(1-hydroxy-2-oxo-2,3,4,7-tetrahydro-1H-azepin-3-(R)-yl)-methanesulfonamide]: the IC50 at MMP-9 and against MMP-2 was more than 1000 nM in each case.
Consider `O=C1[C@H](NS(=O)(=O)c2ccc(Br)s2)CC=CCN1O` [Compound 16, 5-Bromo-thiophene-2-sulfonic acid (1-hydroxy-2-oxo-2,3,4,7-tetrahydro-1H-azepin-3-(R)-yl)-amide], for which the values for the IC50 on MMP-9 and against MMP-2 were 28.4 nM and 43 nM, respectively.
On the same counts, the results for `COc1ccc(-c2ccc(S(=O)(=O)N[C@@H]3CC=CCN(O)C3=O)s2)cc1` [Compound 17, 5-(4-Methoxy-phenyl)-thiophene-2-sulfonic acid (1-hydroxy-2-oxo-2,3,4,7-tetrahydro-1H-azepin-3-(R)-yl)-amide] are 10.7 nM and 3.9 nM.
The like results for `O=C1[C@H](N(CCN2CCOCC2)S(=O)(=O)c2ccc(Br)s2)CC=CCN1O` [Compound 18, (R)-5-Bromo-thiophene-2-sulfonic acid (1-hydroxy-2-oxo-2,3,4,7-tetrahydro-1H-azepin-3-yl)-(2-morpholin-4-yl-ethyl)-amide] were, in that order, 14.3 nM and 48.1 nM.
`O=C1[C@H](NS(=O)(=O)c2ccc(Oc3ccc(Cl)cc3)cc2)CC=C(CN2CCOCC2)CN1O` [Compound 19, 4-(4-Chloro-phenoxy)-N-(1-hydroxy-6-morpholin-4-ylmethyl-2-oxo-2,3,4,7-tetrahydro-1H-azepin-3-(R)-yl)-benzenesulfonamide]: the IC50 against MMP-9 came to 0.77 nM; against MMP-2, 0.39 nM.
At MMP-9, `CN(c1cccn(O)c1=O)S(=O)(=O)c1ccc(Oc2ccc(C(F)(F)F)cc2)cc1` [Compound 30, N-(1-Hydroxy-2-oxo-1,2-dihydro-pyridin-3-yl)-N-methyl-4-(4-trifluoromethyl-phenoxy)-benzenesulfonamide] yielded an IC50 of 32.7 nM.
Consider `Cc1ccn(O)c(=O)c1N(C)S(=O)(=O)c1ccc(Oc2ccc(Cl)cc2)cc1` [Compound 31, 4-(4-Chloro-phenoxy)-N-(1-hydroxy-4-methyl-2-oxo-1,2-dihydro-pyridin-3-yl)-N-methyl-benzenesulfonamide], for which the IC50 at MMP-2 (read-out: MMP-2 nM IC50) was found to be 66.2 nM.
Still for that read-out and setting: the figure for `CN(c1cc(Br)cn(O)c1=O)S(=O)(=O)c1ccc(Oc2ccc(Cl)cc2)cc1` [Compound 32, N-(5-Bromo-1-hydroxy-2-oxo-1,2-dihydro-pyridin-3-yl)-4-(4-chloro-phenoxy)-N-methyl-benzenesulfonamide] is 662 nM.
The compound `O=C1[C@H](NS(=O)(=O)c2ccc(Oc3ccc(Cl)cc3)cc2)CCCN1O` [Compound 57, (R)-4-(4-Chloro-phenoxy)-N-(1-hydroxy-2-oxo-piperidin-3-yl)-benzene-sulfonamide] registered an IC50 on MMP-9 of 57.9 nM.
